Patent publication US11925450B2, “Methods and apparatus for guiding medical care based on detected gastric function” (Gravitas Medical, Inc., priority 2011, dated 2024)
Where two headings read alike, the source gives them in different places.

Assays:
[1] = cited from earlier work; for Volume of HCl neutralized by 30 ml: 30 ml (sodium citrate 0.3M)
gastric juice pH [2] = settings: cited from earlier work
gastric juice pH [3] = settings: 30 ml of 0.3 M, pretreatment in elective cesarean section patients; cited from earlier work
[4] = cited from earlier work
[5] = in vivo; cited from earlier work
[6] = approximately 5 ml of 8.4% solution
Method: In particular, 5 mls of this 8.4% solution can be administered into a patient's stomach at least 15 minutes prior to baseline measurement of gastric juice pH and administration of stimulant, such as pentagastrin.

For `O=C([O-])CC(O)(CC(=O)[O-])C(=O)[O-].[Na+].[Na+].[Na+]` [Sodium Citrate, sodium citrate], the “Volume of HCl neutralized by 30 ml” value ([1]; HCl pH 0.8) is listed as 140 mL, the “Volume of HCl neutralized by 30 ml” value ([1]; HCl pH 1 (1.0)) is listed as 255 mL and the “Volume of HCl neutralized by 30 ml” value ([1]; HCl pH 1 (1.0), listed as sodium citrate) is listed as “up to 255 ml”. The “Volume of HCl neutralized by 30 ml” value ([1]; HCl pH 1.5) was 750 mL, the “pH (value in parentheses after the antacid's name)” value ([1]; presumably pH of the antacid itself, not explained) was “Sodium Citrate (8.5)” and the “gastric juice pH, mean after administration” value (gastric juice pH [2]; 50 ml of 0.3 M into the stomach via nasogastric tube, within two minutes, baseline 1.2±0.1) was 4.8. For the same compound, the “gastric juice pH, range after administration” value (gastric juice pH [2]; 50 ml of 0.3 M via nasogastric tube, within two minutes) was 6.7-7.0, the “time gastric juice pH maintained above 6” value (gastric juice pH [2]; 50 ml of 0.3 M) was “at least 2 hours” and the “gastric juice pH maintained after administration” value (gastric juice pH [2]; 50 ml of 0.3 M, for at least 2 hours) was “above 6”. The “change in gastric juice pH” value (gastric juice pH [3]) was “significant increase in gastric juice pH”.

In the case of `Cl.Cl.NCCc1ccn[nH]1` [betazole hydrocholoride], the side effects ([4]; orally administered) is listed as “few side effects”.

In the case of `NCCc1c[nH]cn1` [histamine], the side effects ([4]; large doses) is listed as “severe hypotension”.

For `CSCC[C@H](NC(=O)[C@H](Cc1c[nH]c2ccccc12)NC(=O)CCNC(=O)OC(C)(C)C)C(=O)N[C@@H](CC(=O)O)C(=O)N[C@@H](Cc1ccccc1)C(N)=O` [pentagastrin], the half-life [5] is listed as “approximately 10 minutes”, the safety profile ([4]; in vivo) is listed as “very good safety profile” and the side effects ([4]; intravenous 0.5 mcg/kg bolus over 30 seconds) is listed as “abdominal fullness and an urge to defecate”. For the same compound, the side effects ([4]; intravenous administration) was “transient mild side effects, e.g., anxiety, palpitations”.

In the case of `O=C([O-])O.[Na+]` [sodium bicarbonate], the “volume of gastric juice (pH 1.0) neutralized” value [6] is reported as 50 ml.
